# Reference: patent publication US20120083522A1, “MODULATION OF INFLAMMATORY RESPONSES BY FACTOR XI” (Isis Pharmaceuitcals, inc., priority 2009, published 2012)
# In the oligonucleotide strings, read from the 5' end, every base follows the letter of its sugar. An asterisk marks phosphorothioate; unmarked linkages are phosphodiester. Other units and linkages are bracketed, terminal groups are in braces. A string of capitals states the bases alone. e = 2'-O-(2-methoxyethyl) (MOE); [5mC] = 5-methylcytosine; d = 2'-deoxy (DNA)
# Key:
# Factor XI mRNA = assay: Cynomolgus monkeys, escalating doses: liver Factor XI RNA analysis (Example 29); assay type: in vivo; settings: escalating doses 5, 10, 25 mg/kg s.c. over 12 weeks, day 85
# Experimental: Groups, each consisting of two male and three female monkeys, were injected subcutaneously with ISIS 416838, ISIS 416850, ISIS 416858, ISIS 416864, or ISIS 417002 in escalating doses. Antisense oligonucleotide was administered to the monkeys at 5 mg/kg three times per a week for week 1; 5 mg/kg twice per week for weeks 2 and 3; 10 mg/kg three times per week for week 4; 10 mg/kg twice per week for weeks 5 and 6; 25 mg/kg three times per week for week 7; and 25 mg/kg twice per week for weeks 8, 9, 10, 11, and 12. One control group, consisting of two male and three female monkeys, was injected subcutaneously with PBS according to the same dosing regimen. An additional experimental group, consisting of two male and three female monkeys, was injected subcutaneously with ISIS 416850 in a chronic, lower dose regimen. Antisense oligonucleotide was administered to the monkeys at 5 mg/kg three times per week for week 1; 5 mg/kg twice per week for week 2 and 3; 10 mg/kg three times per week for week 4; and 10 mg/kg twice per week for weeks 5 to 12. Body weights were measured weekly. Blood samples were collected 14 days and 5 days before the start of treatment and subsequently once per week for Factor XI protein activity analysis in plasma and measurement of various hematologic factors. On day 85, the monkeys were euthanized by exsanguination while under deep anesthesia, and organs harvested for further analysis.
# On day 85, RNA was extracted from liver tissue for real-time PCR analysis of Factor XI using primer probe set LTS00301 (forward primer sequence […], designated herein as SEQ ID NO 271; reverse primer sequence […], designated herein as SEQ ID NO: 272; and probe sequence TGCAGGCACAGCATCCCAGTGTTCTX, wherein X is a fluorphore, designated herein as SEQ ID NO. 273). Results are presented as percent inhibition of Factor XI, relative to PBS control.
# [1] = test system: DSS-induced colitis model; assay: Colitis Study E: weight change, colon length, stool analysis; assay type: in vivo, Swiss Webb mice; settings: for Colon length / Weight change / Diarrhea score: DSS-treated mice; for Colon length / Weight change: 40 mpk; for Diarrhea score: day 7, 40 mpk
# Experimental: (§1) Two groups 8 Swiss Webb mice were dosed with 40 mg/kg of ISIS 404071 injected subcutaneously twice a week for 3 weeks. Two control groups of 8 Swiss Webb mice were dosed with PBS subcutaneously twice a week for 3 weeks. Both the ASO treated groups and one of the control groups were then given 4% DSS in distilled water for 7 days ad libitum. One of the ASO and DSS treated groups was also given intravenous injections of 20 μg of recombinant human Factor XI protein (Haematologic Technologies Inc.) for 7 consecutive days, starting the day before DSS treatment. Mice were sacrificed at the end of the study on day 7 after DSS was administered.
# Mice in all groups were weighed at day 0 and at the end of the study. […] Mice were sacrificed at the end of the study on day 7 after DSS was administered and their colon lengths were measured.
# bradykinin = assay: Colitis Study E: bradykinin levels in colon; assay type: in vivo, Swiss Webb mice; settings: for Bradykinin levels in the colons: DSS-treated mice, day 7, 40 mpk
# Experimental: as §1
# The effect of antisense inhibition of Factor XI on kinin levels in the colon was evaluated (Phoenix Pharmaceuticals, Burlingame, Calif.) at the end of the study on day 7 after DSS was administered and the results are presented in Table 40.
# [2] = test system: collagen-induced arthritis model; assay: Arthritis Study B: collagen-induced arthritis, clinical effects (Example 11); assay type: in vivo, DBA/1J mice
# Experimental: The effect of inhibition of Factor XI and its role in fibrin accumulation in the joints leading to joint inflammation and rheumatoid arthritis was evaluated in a murine collagen-induced arthritis (CIA) model. […] Arthritis induced in mice administered collagen can be visually assessed and clinically scored as described by Marty et al. (J Clin Invest, 107:631-640, 2001) where 1 point is given for each swollen digit except the thumb (maximum, 4), 1 point is given for the tarsal or carpal joint, and 1 point is given for the metatarsal or metacarpal joint with a maximum score of […]. Each paw was graded individually, the cumulative clinical arthritic score per mouse reaching a maximum of 22 points
# In a group of 20 DBA/1J mice, 20 mg/kg of ISIS 404071 were injected subcutaneously twice a week for ten weeks. In a second group of 20 DBA/1J mice, 20 mg/kg of ISIS 404057 were injected subcutaneously twice a week for ten weeks. In a third control group of 20 DBA/1J mice, 20 mg/kg of ISIS 421208 were injected subcutaneously twice a week for ten weeks. Two control groups of 20 mice each were injected with PBS twice a week for ten weeks.
# Two and a half weeks after the first oligonucleotide dose, type II bovine collagen in complete Freund's adjuvant was injected subcutaneously at the base of the tail in all the experimental groups and one PBS control group. A booster injection containing 100 μg collagen type II in incomplete Freund's adjuvant was injected subcutaneously at the base of the tail at a different injection site on day 21 after the first collagen injection in these groups.
# Mice in all groups were examined daily after day 30 after the first collagen injection for the visual appearance of arthritis in peripheral joints. The results in Table 22 are expressed as percent change compared to the PBS control except for the liver and spleen weight.
# [3] = test system: DSS-induced colitis model; assay: Colitis Study F: body weight, stool scores, colon length and weight; assay type: in vivo, Swiss Webb mice
# Experimental: In a first group of 8 Swiss Webb mice, 50 mg/kg of ISIS 404071 was injected subcutaneously twice a week for 3 weeks. Two control groups of 8 mice each were injected with PBS twice a week for 3 weeks. After the oligonucleotide treatment, 4% DSS in water was administered ad libitum for 7 days to the experimental group and one PBS control group. Mice were sacrificed at the end of the study on day 7 after DSS was administered.
# Mice in all groups were weighed at day 0 and daily for 7 days after administration of DSS. Mice were sacrificed at the end of the study on day 7 after DSS was administered and their colon lengths and weight were measured as shown in Table 45.
# [4] = plus human recombinant FXI 20 ug/mouse/day
# [5] = DBA/1J mice, 20 mg/kg s.c. twice a week for ten weeks, end of study
# [6] = DSS-treated mice, 50 mg/kg, day 7
substance,measurement,setting,value
"416838 (antisense GCAACCGGGATGATGAGTGC; 5-10-5 gapmer, wing sugar chemistry not given here, further chemistry not given here) [compound 416838]",% inhibition of Factor XI mRNA in liver relative to the PBS control,Factor XI mRNA,37%
"416850 (antisense TGCACAGTTTCTGGCAGGCC; 5-10-5 gapmer, wing sugar chemistry not given here, further chemistry not given here) [compound 416850]",% inhibition of Factor XI mRNA in liver relative to the PBS control,Factor XI mRNA,84%
"416858 (antisense ACGGCATTGGTGCACAGTTT; 5-10-5 gapmer, wing sugar chemistry not given here, further chemistry not given here) [compound 416858]",% inhibition of Factor XI mRNA in liver relative to the PBS control,Factor XI mRNA,90%
"416864 (antisense GGCAGCGGACGGCATTGGTG; 5-10-5 gapmer, wing sugar chemistry not given here, further chemistry not given here) [compound 416864]",% inhibition of Factor XI mRNA in liver relative to the PBS control,Factor XI mRNA,44%
"417002 (antisense GGTGCACAGTTTCTGGCAGG; 2-13-5 gapmer, wing sugar chemistry not given here, further chemistry not given here) [compound 417002]",% inhibition of Factor XI mRNA in liver relative to the PBS control,Factor XI mRNA,57%
"TGGTAATCCACTTTCAGAGG (eT*eG*eG*eT*eA*dA*dT*d[5mC]*d[5mC]*dA*d[5mC]*dT*dT*dT*d[5mC]*eA*eG*eA*eG*eG) [ISIS 404071, 5-10-5 MOE gapmer targeting murine Factor XI, target start site 869]",colon length (in words),"[1]; Colitis Study E, day 7",increase in colon length
same,stool softness/diarrhea (in words),"[1]; Colitis Study E, day 7",amelioration of diarrhea
same,Colon length,[1]; no human recombinant FXI,9.9 cm
same,Weight change,[1]; no human recombinant FXI,+1.8%
same,Colon length,[1]; [4],7.3 cm
same,Weight change,[1]; [4],+0.3%
same,Diarrhea score,[1]; no human recombinant FXI,0.5
same,Diarrhea score,[1]; [4],2.0
same,bradykinin levels (in words),"bradykinin; Colitis Study E, day 7",decreased
same,Bradykinin levels in the colons,bradykinin; no human recombinant FXI,0.1 ng/mg
same,Bradykinin levels in the colons,bradykinin; [4],0.3 ng/mg
same,amount of arthritis assessed (in words),"[2]; Arthritis Study B, 20 mg/kg twice a week for ten weeks, compared to untreated mice",significantly decreased the amount of arthritis
same,% of CIA,[2]; [5],64%
same,% of paws affected,[2]; [5],20%
same,Average no. of paws affected,[2]; [5],0.82
same,Clinical severity of CIA,[2]; [5],4.6
same,body weight (in words),"[3]; Colitis Study F, 50 mg/kg, compared to placebo",did not significantly affect body weight
same,Body weight (day 0),"[3]; DSS-treated mice, 50 mg/kg s.c. twice a week for 3 weeks, day 0",28 grams
same,Body weight (day 7),"[3]; DSS-treated mice, 50 mg/kg s.c. twice a week for 3 weeks, day 7",24.7 grams
same,Stool score,"[3]; DSS-treated mice, 50 mg/kg, Day 3",0
same,Stool score,"[3]; DSS-treated mice, 50 mg/kg, Day 4",0.25
same,Stool score,"[3]; DSS-treated mice, 50 mg/kg, Day 5",1
same,Stool score,"[3]; DSS-treated mice, 50 mg/kg, Day 6",1
same,Stool score,"[3]; DSS-treated mice, 50 mg/kg, Day 7",1
same,Colon length,[3]; [6],7.8 cm
same,Colon weight,[3]; [6],339.3 mg
